Experimental data: article PMC4503722, “Novel Phenotypic Outcomes Identified for a Public Collection of Approved Drugs from a Publicly Accessible Panel of Assays” (PLoS ONE, 2015)
Structures can show the parent of a compound that is named as a salt. Where two headings read alike, the source gives them in different places. Where a SMILES comes first, the peptide text is derived from it. [ ]: non-standard residue; d: D form. The star is where a group is joined. Sta = CC(C)C[C@H](N)[C@@H](O)CC(=O)O; Isovaleryl = CC(C)CC(=O)*

Experiments:
Test in all cases: cells
[1] = test system: DLD-1; assay type: cell-based
[2] = test system: NCI-H716 cells; assay type: cell-based, Human
[3] = test system: HCT116; assay type: cell-based
[4] = test system: endothelial tube formation in co-cultures of ECFCs and ADSCs treated with VEGF; assay type: cell-based, human
[5] = test system: nuclear β-catenin in C2C12 cells; assay type: cell-based
[6] = test system: INS-1E cells; assay type: cell-based, rat
[7] = test system: HeLa cells; assay type: cell-based; details: Homo sapiens, HeLa, HeLa, read-out: CellCycle G2/M
[8] = test system: SW480; assay type: cell-based
[9] = test system: HCT116 cells treated with a GSK3β inhibitor; assay type: cell-based
[10] = Homo sapiens, DLD-1, basal, read-out: Basal_Viability ATP DLD-1
[11] = Homo sapiens, IC50 / EC50, NCI-H716, read-out: GLP 1 Secretion
[12] = Homo sapiens, HCT-116, basal, read-out: Basal_Viability ATP HCT116
[13] = Homo sapiens, IC50 / EC50, endothelial tube area, ADSC/ECFC co-culture, read-out: Anti-Angiogenesis
[14] = Mus musculus, C2C12, IC50 / EC50, C2C12 beta-catenin translocation, read-out: Wnt Pathway
[15] = Rattus norvegicus, IC50 / EC50, INS-1E, read-out: Insulin Secretion
[16] = Homo sapiens, SW480, basal, read-out: Basal_Viability ATP SW480
[17] = Homo sapiens, HCT-116, GSK3b inhibitor pretreated, read-out: GSK3b inh pretreated_Viability ATP HCT116
[18] = Homo sapiens, DLD-1, basal, DLD-1, read-out: Basal_Viability ATP DLD-1
[19] = Homo sapiens, NCI-H716, read-out: GLP 1 Secretion
[20] = Homo sapiens, HCT-116, basal, HCT116, read-out: Basal_Viability ATP HCT116
[21] = Homo sapiens, read-out: Anti-Angiogenesis
[22] = Mus musculus, C2C12, S2 Table, module primary assay, 20 / 20.1 codes per legend, read-out: Wnt Pathway
[23] = Rattus norvegicus, INS-1E, read-out: Insulin Secretion
[24] = S2 Table, 20 = no response at highest concentration
[25] = Homo sapiens, SW480, basal, SW480, read-out: Basal_Viability ATP SW480
[26] = Homo sapiens, HCT-116, HCT116 pretreated with GSK3b inhibitor, read-out: GSK3b inh pretreated_Viability ATP HCT116

## Nc1nc(=O)n([C@@H]2O[C@H](CO)[C@@H](O)[C@@H]2F)cc1I [Fiacitabine]
[1]; [10]
  IC50: > 20 µM
[2]; [11]
  EC50: > 10 µM
[3]; [12]
  IC50: > 20 µM
[4]; [13]
  IC50: 3.47 µM
[5]; [14]
  EC50: > 10 µM
[6]; [15]
  EC50: > 10 µM
[7]; IC50 / EC50
  EC50: > 10 µM
[8]; [16]
  IC50: > 20 µM
[9]; [17]
  IC50: > 20 µM

## CN1CC[C@H](c2c(O)cc(O)c3c(=O)cc(-c4ccccc4Cl)oc23)[C@H](O)C1 [Flavopiridol]
[1]; [10]
  IC50: 0.0684 µM
[2]; [11]
  EC50: > 10 µM
[3]; [12]
  IC50: 16.7 µM
[4]; [13]
  IC50: 0.114 µM
[5]; [14]
  EC50: 0.191 µM
[6]; [15]
  EC50: > 10 µM
[7]; IC50 / EC50
  EC50: > 10 µM
[8]; [16]
  IC50: 2.11 µM
[9]; Homo sapiens, HCT-116, read-out: GSK3b inh pretreated_Viability ATP HCT116
  IC50: 0.297 µM

## CO[C@@H]1[C@@H](OC)[C@H](C)[C@@](O)(CC(=O)O)O[C@H]1[C@H](C)[C@H]1O[C@@]2(CC[C@@](C)([C@H]3CC[C@@](C)([C@@H]4O[C@@H]([C@H]5O[C@](C)(O)[C@H](C)C[C@@H]5C)C[C@@H]4O[C@@H]4C[C@H](OC)[C@@H](OC)[C@H](C)O4)O3)O2)C[C@H](O)[C@H]1C [Maduramicin ammonium]
[1]; [10]
  IC50: 1.08 µM
[2]; [11]
  EC50: > 10 µM
[3]; [12]
  IC50: 8.6 µM
[4]; [13]
  IC50: 0.252 µM
[5]; [14]
  EC50: > 10 µM
[6]; [15]
  EC50: > 10 µM
[7]; IC50 / EC50
  EC50: > 10 µM
[8]; [16]
  IC50: 1.45 µM
[9]; [17]
  IC50: 1.16 µM

## C[C@@H]1C[C@H]2[C@@H]3CCC4=CC(=O)C=C[C@]4(C)[C@@]3(Cl)[C@@H](O)C[C@]2(C)[C@@]1(OC(=O)c1ccco1)C(=O)CCl [Mometasone furoate]
[1]; [18]
  IC50: 8.42 µM
[2]; [19]
  EC50: > 10 µM
[3]; [20]
  IC50: 14.5 µM
[4]; [21]
  IC50: 4.99 µM
[5]; [22]
  EC50: > 10 µM
[6]; [23]
  EC50: > 10 µM
[7]; [24]
  EC50: > 10 µM
[8]; [25]
  IC50: 4.89 µM
[9]; [26]
  IC50: > 20 µM

## CC(C)CC(=O)N[C@H](C(=O)N[C@H](C(=O)N[C@@H](CC(C)C)[C@@H](O)CC(=O)N[C@@H](C)C(=O)N[C@@H](CC(C)C)[C@@H](O)CC(=O)O)C(C)C)C(C)C [Pepstatin] (Isovaleryl-VV[Sta]A[Sta]-OH)
[1]; [18]
  IC50: > 20 µM
[2]; [19]
  EC50: > 10 µM
[3]; [20]
  IC50: > 20 µM
[4]; [21]
  IC50: 1.24 µM
[5]; [22]
  EC50: > 10 µM
[6]; [23]
  EC50: > 10 µM
[7]; [24]
  EC50: > 10 µM
[8]; [25]
  IC50: > 20 µM
[9]; [26]
  IC50: 17.7 µM

## Oc1ccc2[nH]cc(CCCCN3CC=C(c4ccccc4)CC3)c2c1 [Roxindole hydrochloride]
[1]; read-out: Basal_Viability ATP DLD-1
  IC50: 4.54 µM
[2]; read-out: GLP 1 Secretion
  EC50: > 10 µM
[3]; read-out: Basal_Viability ATP HCT116
  IC50: 2.5 µM
[4]; read-out: Anti-Angiogenesis
  IC50: 4.04 µM
[5]; read-out: Wnt Pathway
  EC50: > 10 µM
[6]; read-out: Insulin Secretion
  EC50: > 10 µM
[8]; read-out: Basal_Viability ATP SW480
  IC50: 2.47 µM
[9]; read-out: GSK3b inh pretreated_Viability ATP HCT116
  IC50: 3.32 µM

## CC(C)OC(=O)OCOP(=O)(CO[C@H](C)Cn1cnc2c(N)ncnc21)OCOC(=O)OC(C)C [Tenofovir disoproxil fumarate]
[1]; [10]
  IC50: 19.6 µM
[2]; [11]
  EC50: > 10 µM
[3]; [12]
  IC50: > 20 µM
[4]; [13]
  IC50: 3.84 µM
[5]; [14]
  EC50: > 10 µM
[6]; [15]
  EC50: > 10 µM
[7]; IC50 / EC50
  EC50: > 10 µM
[8]; [16]
  IC50: > 20 µM
[9]; [17]
  IC50: > 20 µM

## O=C1Nc2ccc(Cl)cc2[C@@](C#CC2CC2)(C(F)(F)F)O1 [efavirenz, reference compound]
[1]; [10]
  IC50: > 20 µM
[2]
  activity in the GLP-1 secretion assay (in words): exhibited activity in the GLP-1 secretion assay
[2]; [11]
  EC50: 2.48 µM
[3]; [12]
  IC50: 6.17 µM
[4]; [13]
  IC50: > 10 µM
[5]; [14]
  EC50: > 10 µM
[6]; [15]
  EC50: 3.87 µM
[8]; [16]
  IC50: 4.61 µM
[9]; [17]
  IC50: 7.3 µM

## CCC1=C(C)CN(C(=O)NCCc2ccc(S(=O)(=O)NC(=O)N[C@H]3CC[C@H](C)CC3)cc2)C1=O [glimepiride, reference compound]
[1]; Homo sapiens, DLD-1, 72 h, Table 2, 72 h, Cell TiterGlo, non-adherent, 20 coded, read-out: DLD-1 viab. IC50
  IC50: > 20 µM
[2]; Homo sapiens, NCI-H716, read-out: GLP1 sec. EC50
  EC50: > 10 µM
[3]; Homo sapiens, HCT-116, 72 h, read-out: HCT-116 viab. IC50, Table 2, basal, 72 h, Cell TiterGlo, non-adherent, 20 coded
  IC50: > 20 µM
[4]; Homo sapiens, Table 2, primary assay tube area, 20 = no response in concentration-response, 20.1 = inactive in single concentration testing, read-out: Anti-Angio IC50
  IC50: > 10 µM
[5]; Mus musculus, C2C12, Table 2, C2C12, […], 20 / 20.1 coded, read-out: Wnt pot. EC50
  EC50: > 10 µM
[6]; Rattus norvegicus, INS-1E, read-out: Ins. sec. EC50
  EC50: 0.004 µM
[6]; [15]
  EC50: 0.00406 µM
[6]; Rattus norvegicus, INS-1E, 5 mM glucose, read-out: insulin secretion EC50
  EC50: 0.0041 µM
[8]; Homo sapiens, SW480, 72 h, Table 2, 72 h, Cell TiterGlo, non-adherent, 20 coded, read-out: SW480 viab. IC50
  IC50: > 20 µM
[9]; Homo sapiens, HCT-116, read-out: HCT-116 (GSK3β) viab. IC50, Table 2, GSK3β inhibitor LY2090314 20 nM, 72 h, Cell TiterGlo, 20 coded
  IC50: > 20 µM
